EP4635951A1, “SALT-TYPE GLP-1 RECEPTOR AGONIST, CRYSTAL FORM THEREOF, PREPARATION METHOD THEREFOR, PHARMACEUTICAL COMPOSITION THEREOF, AND USE THEREOF” (Hangzhou Zhongmeihuadong Pharmaceutical Co., Ltd., priority 2022, dated 2024)
Converted amounts (≈) assume the structure as drawn.

Key:
Equilibrium solubility = type: physicochemical; details: 37°C
Procedure: After 24 hours, samples were taken. The samples were centrifuged for separation, and the supernatant after filtration was used for solubility determination.

Hygroscopicity by DVS = type: physicochemical; details: 25°C, 80%RH
Pressure stability = type: physicochemical
[1] = Suspension competition tests between Crystal Form A and Crystal Form P; type: physicochemical; details: room temperature and 50°C
Procedure: The suspensions of Compound Z that had been equilibrated for 2 hours under the corresponding temperature and solvent conditions were filtered to obtain saturated solutions of Compound Z under different temperature and solvent conditions, and then solid mixtures of Crystal Forms A and P of Compound Z were added. After the suspension competition was carried out for 1 day, the solids were separated for XRPD characterization.

High-humidity stability = type: physicochemical
[2] = Water activity stability of crystal form; type: physicochemical
[3] = High-temperature stability test; type: physicochemical
[4] = Solid-state stability, long-term and accelerated conditions; type: physicochemical; details: for Purity / purity decrease: 10 days
From the text: The free Compound I was in a crystalline form, and had the XRPD pattern indicated by the arrow in Figure 50.

Dynamic solubility = details: for Dynamic solubility in water: 37°C±2°C
Human GLP-1R = target: T1, Human GLP-1R (Homo sapiens, UniProt P43220); experiment: GLP-1R agonistic activity, HTRF cAMP assay in 293A GFP-GLP-1R cells; type: cell-based; details: result in words
T1 construct: expressed in transfected cells; host or cells: 293A cells stably expressing GLP-1R-GFP
T1 sequence (P43220 24-463): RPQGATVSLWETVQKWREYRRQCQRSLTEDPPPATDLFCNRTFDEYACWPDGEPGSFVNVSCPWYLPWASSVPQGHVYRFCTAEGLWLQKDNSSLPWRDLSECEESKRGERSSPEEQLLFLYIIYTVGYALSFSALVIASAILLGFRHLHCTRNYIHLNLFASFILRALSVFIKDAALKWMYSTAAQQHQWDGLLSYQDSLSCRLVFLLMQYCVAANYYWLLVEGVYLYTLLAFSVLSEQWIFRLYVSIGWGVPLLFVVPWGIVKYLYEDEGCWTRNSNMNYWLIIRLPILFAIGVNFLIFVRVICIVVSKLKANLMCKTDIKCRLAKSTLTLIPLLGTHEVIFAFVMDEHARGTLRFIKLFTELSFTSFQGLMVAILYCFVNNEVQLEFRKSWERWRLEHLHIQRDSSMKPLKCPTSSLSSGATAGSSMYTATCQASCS
From the text: The method was a competitive immunoassay.

[5] = listed as Compound I in the amorphous form
[6] = FaSSGF, 37 °C, fassgf or other biorelevant, thermodynamic from solid
[7] = fassif, 37 °C, thermodynamic from solid

Compound: O=C(O)c1ccc2nc(CN3CCC(c4cccc(OCc5ccc(C6COC6)cc5F)n4)CC3)n(C[C@@H]3CCO3)c2c1 [Amorphous form of Compound I]
- solubility thermodynamic at 24 h (Equilibrium solubility; fassif, FaSSIF (fasted-state simulated intestinal fluid)): 150 µg/mL (≈ 256 µM)
- solubility thermodynamic at 24 h (Equilibrium solubility; fessif, FeSSIF (fed-state simulated intestinal fluid)): 800 µg/mL (≈ 1360 µM)
- solubility thermodynamic at 24 h (Equilibrium solubility; purified water, H2O (purified water)): 430 µg/mL (≈ 733 µM)
- solubility thermodynamic at 24 h (Equilibrium solubility; sgf (simulated gastric fluid)): 410 µg/mL (≈ 699 µM)
- hygroscopicity class (Hygroscopicity by DVS; [5]): hygroscopic (a weight gain of 2%-15% indicates hygroscopic)
- weight gain (water absorbed) (Hygroscopicity by DVS; [5]): 4.029%

Compound: O=C(O)c1ccc2nc(CN3CCC(c4cccc(OCc5ccc(C6COC6)cc5F)n4)CC3)n(C[C@@H]3CCO3)c2c1 [Crystal Form A of Compound Z]
- purity decrease (Pressure stability; 1000 Mpa, 5 minutes): no obvious decrease
- initial purity (Pressure stability; HPLC purity (% area), before pressing): 97.31%
- solubility thermodynamic at 24 h (Equilibrium solubility; FaSSIF (fasted-state simulated intestinal fluid)): 1190 µg/mL (≈ 2030 µM)
- solubility thermodynamic at 24 h (Equilibrium solubility; FeSSIF (fed-state simulated intestinal fluid)): 1170 µg/mL (≈ 1990 µM)
- solubility thermodynamic at 24 h (Equilibrium solubility; H2O (purified water)): 1940 µg/mL (≈ 3310 µM)
- solubility thermodynamic at 24 h (Equilibrium solubility; SGF (simulated gastric fluid)): 1000 µg/mL (≈ 1700 µM)
- hygroscopicity class (Hygroscopicity by DVS): slightly hygroscopic (a weight gain of 0.2%-2% indicates slightly hygroscopic)
- weight gain (water absorbed) (Hygroscopicity by DVS): 1.696%
- thermodynamic stability relative to Crystal Form P [1]: thermodynamically more stable
- purity decrease (High-humidity stability; 90%RH, 10 days): no obvious decrease
- initial purity (High-humidity stability; HPLC purity (% area), before high humidity): 97.41%
- solubility at 1 h (physchem; [6]): 40 µg/mL (≈ 68.2 µM)
- solubility at 2 h (physchem; [6]): 140 µg/mL (≈ 239 µM)
- solubility at 4 h (physchem; [6]): 120 µg/mL (≈ 205 µM)
- solubility at 2 h (physchem; fassif): 130 µg/mL (≈ 222 µM)
- solubility at 1 h (physchem; [7]): 130 µg/mL (≈ 222 µM)
- solubility at 4 h (physchem; [7]): 110 µg/mL (≈ 188 µM)
- solubility at 24 h (physchem; [7]): 280 µg/mL (≈ 477 µM)
- solubility at 1 h (physchem; water): 5500 µg/mL (≈ 9380 µM)
- solubility at 2 h (physchem; water): 1380 µg/mL (≈ 2350 µM)
- solubility (physchem; water, 37 °C, fassgf or other biorelevant, thermodynamic from solid): 60 µg/mL (≈ 102 µM)
- water activity aw at which the crystal form is stable [2]: ≤ 0.388
- purity decrease after 1 day ([3]; 60°C, 1 day): no obvious decrease
- purity after 1 day ([3]; HPLC purity (% area), 60°C, 1 day): 97.34%
- initial purity ([3]; HPLC purity (% area), before 60°C): 97.41%
- Purity ([4]; 25°C/60%RH): 97.38 % Area
- Purity ([4]; 40°C/75%RH): 97.35 % Area
- initial purity ([4]; HPLC, before storage): 97.41 % Area
- purity decrease ([4]; accelerated conditions (40°C/75%RH)): no obvious decrease
- purity decrease ([4]; long-term conditions (25°C/60%RH)): no obvious decrease
- Whether the crystal form changed (Dynamic solubility; FaSSGF, 1 h): YES
- XRPD of Residual Solid (Dynamic solubility; FaSSGF, 1 h): Amorphous
- Whether the crystal form changed (Dynamic solubility; FaSSGF, 2 h): YES
- XRPD of Residual Solid (Dynamic solubility; FaSSGF, 2 h): Amorphous
- Whether the crystal form changed (Dynamic solubility; FaSSGF, 4 h): YES
- XRPD of Residual Solid (Dynamic solubility; FaSSGF, 4 h): Crystal Form A of the hydrochloride of Compound I
- Whether the crystal form changed (Dynamic solubility; FaSSGF, 24 h): YES
- XRPD of Residual Solid (Dynamic solubility; FaSSGF, 24 h): Crystal Form A of the hydrochloride of Compound I
- Whether the crystal form changed (Dynamic solubility; FaSSIF, 1 h): YES
- XRPD of Residual Solid (Dynamic solubility; FaSSIF, 1 h): Crystal Form A of Compound I
- Whether the crystal form changed (Dynamic solubility; H2O (water), 2 h): YES
- XRPD of Residual Solid (Dynamic solubility; H2O (water), 2 h): Crystal Form A of Compound I
- Whether the crystal form changed (Dynamic solubility; H2O (water), 4 h): YES
- XRPD of Residual Solid (Dynamic solubility; H2O (water), 4 h): Crystal Form A of Compound I
- Dynamic solubility in water (Dynamic solubility; H2O (water), 4 h, 240 min): 1230 µg/mL
- Whether the crystal form changed (Dynamic solubility; H2O (water), 24 h): YES
- XRPD of Residual Solid (Dynamic solubility; H2O (water), 24 h): Crystal Form A of Compound I
- Dynamic solubility in water (Dynamic solubility; H2O (water), 24 h, 1440 min): 1330 µg/mL

Compound: O=C(O)c1ccc2nc(CN3CCC(c4cccc(OCc5ccc(C6COC6)cc5F)n4)CC3)n(C[C@@H]3CCO3)c2c1 [Compound I, (S)-2-((4-(6-((2-fluoro-4-(oxetan-3-yl)benzyl)oxy)pyridin-2-yl)piperidin-1-yl)methyl)-1-(oxetan-2-ylmethyl)-1H-benzo[d]imidazole-6-carboxylic acid]
- solubility at 1 h (physchem; [6]): 100 µg/mL (≈ 170 µM)
- solubility at 2 h (physchem; [6]): 90 µg/mL (≈ 153 µM)
- solubility at 4 h (physchem; [6]): 110 µg/mL (≈ 188 µM)
- solubility at 24 h (physchem; [6]): 100 µg/mL (≈ 170 µM)
- solubility at 1 h (physchem; [7]): 40 µg/mL (≈ 68.2 µM)
- solubility at 4 h (physchem; [7]): 120 µg/mL (≈ 205 µM)
- solubility at 24 h (physchem; [7]): 210 µg/mL (≈ 358 µM)
- agonistic effect on GLP-1R (Human GLP-1R): strong agonistic effect
- XRPD of Residual Solid (Dynamic solubility; FaSSGF, 1 h, listed as Free Compound I): Crystal Form A of the hydrochloride of Compound I
- XRPD of Residual Solid (Dynamic solubility; FaSSGF, 2 h, listed as Free Compound I): Crystal Form A of the hydrochloride of Compound I
- Whether the crystal form changed (Dynamic solubility; FaSSIF, 2 h): YES
- XRPD of Residual Solid (Dynamic solubility; FaSSIF, 2 h): Crystal Form A of Compound I
- Dynamic solubility in water (Dynamic solubility; FaSSIF, 2 h, listed as Free Compound I): 70 µg/mL
- Whether the crystal form changed (Dynamic solubility; FaSSIF, 4 h): YES
- XRPD of Residual Solid (Dynamic solubility; FaSSIF, 4 h): Crystal Form A of Compound I
- Whether the crystal form changed (Dynamic solubility; FaSSIF, 24 h): YES
- XRPD of Residual Solid (Dynamic solubility; FaSSIF, 24 h): Crystal Form A of Compound I
- Whether the crystal form changed (Dynamic solubility; H2O (water), 1 h): YES
- XRPD of Residual Solid (Dynamic solubility; H2O (water), 1 h): Crystal Form A of Compound I
- Dynamic solubility in water (Dynamic solubility; H2O (water), 4 h, listed as Free Compound I): 30 µg/mL
- Dynamic solubility in water (Dynamic solubility; H2O (water), 24 h, listed as Free Compound I): 30 µg/mL
